Measured values taken from patent US7064139B2, “Method for treating retroviral infections” (Uniroyal Chemical Company, Inc., priority 2001, dated 2006).
≈ marks a conversion by molar mass, not a printed value. Like-named read-outs stand apart in the source and are kept apart here.

What was measured:
HIV-1 (IIIB) = test: microbe, parasite or virus in culture; type: cell-based; settings: for EC50: Human immunodeficiency virus 1, IIIB, CCRF-CEM, read-out: EC50 (ug/ml) HIV-1; for HIV-1 % Protection: protection of CEM cells against virus-induced cytopathicity at the concentration in the previous column
Method in brief: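 Human T-lymphoblast CEM cells at roughly 300,000 cells per ml were infected with about 100 CCID50 of HIV-1 (IIIB). Then 100 μl of the infected suspension went into 200 μl microtiter wells holding 100 μl of 5-fold serial compound dilutions. Inhibition of syncytium formation was scored microscopically on day four post infection, and protection against virus-induced cytopathicity was recorded.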

HIV-2 (ROD) = test: Inhibition of HIV-2 syncytium formation in CEM cells; type: cell-based; settings: for HIV-2 % Protection: protection of CEM cells against virus-induced cytopathicity at the concentration in the previous column; for EC50: Human immunodeficiency virus 2, CCRF-CEM, read-out: EC50 (ug/ml) HIV-2
Method in brief: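 Human T-lymphoblast CEM cells, suspended at roughly 300,000 cells per ml of culture medium, were infected with about 100 CCID50 of HIV-2 (ROD). Aliquots of 100 μl of infected cells were placed in 200 μl microtiter wells holding 100 μl of serial 5-fold compound dilutions, and syncytium formation was scored microscopically four days after infection.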

Davis strain CMV = test: Reduction of CMV-induced cytopathicity in HEL cells; type: cell-based, human cytomegalovirus (HCMV); settings: for Antiviral % Inhibition Davis strain CMV: estimate of percent protection at the concentration in the previous column; for EC50: read-out: Antiviral EC50 (ug/ml) Davis strain CMV
Method in brief: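 Confluent HEL cells were infected with 100 PFU/well CMV for 1–2 h, then washed and kept in MEM with 2% FCS and test compound. EC50 is the concentration cutting virus-induced cytopathicity by 50% versus untreated control at day 7. Where cytotoxicity interfered, percent protection at the stated concentration is given.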

[1] = CEM cells, syncytium formation, day four post infection
[2] = HEL cells, virus-induced cytopathicity after seven days
[3] = Human betaherpesvirus 5, HEL, 168 h

| Compound | EC50 (ug/ml) HIV-1 (HIV-1 (IIIB); [1]) | EC50 (ug/ml) HIV-2 (HIV-2 (ROD); [1]) | Antiviral EC50 (ug/ml) Davis strain CMV (Davis strain CMV; [2]) [µg/mL] | HIV-2 % Protection (HIV-2 (ROD)) [%] | other results |
| --- | --- | --- | --- | --- | --- |
| O=S(=O)(Cc1ccc(Cl)cc1Cl)c1cccc[n+]1[O-] [Compound 18] | 2.40 µg/mL (≈ 7.54 µM) | 2.5 µg/mL (≈ 7.86 µM) | 5.0 | – | – |
| CC(C)c1ccc(CS(=O)(=O)c2cccc[n+]2[O-])cc1 [Compound 58] | 3.40 µg/mL (≈ 11.7 µM) | 2.6 µg/mL (≈ 8.92 µM) | 5.0 | – | – |
| Cc1ccc(C)c(C[S+]([O-])c2cccc[n+]2[O-])c1 (stereo not drawn) [Compound 3] | 7.20 µg/mL (≈ 27.5 µM) | ≧20 ug/ml | 36.0 | 37.5 | – |
| Cc1ccc(C)c(CS(=O)(=O)c2cccc(C)[n+]2[O-])c1 [Compound 72] | 4.00 µg/mL (≈ 13.7 µM) | >100.0 µg/mL | >50 | 0.0 | Antiviral % Inhibition Davis strain CMV (Davis strain CMV; HEL cells): 0.0% |
| Cc1ccc(C)c(CSc2c(Cl)ccc[n+]2[O-])c1 [Compound 133, 3-Chloro-2-[[(2,5-dimethylphenyl)methyl]thio]pyridine 1-oxide] | – | – | – | 0.0 | EC50 (HIV-1 (IIIB)): 0.14 µg/mL (≈ 0.5 µM); EC50 (HIV-2 (ROD)): > 20 µg/mL; EC50 (Davis strain CMV; [3]): 25 µg/mL (≈ 89.4 µM) |
| Cc1ccc(C)c(CS(=O)(=O)c2cccc(Cl)[n+]2[O-])c1 [Compound 77] | 0.70 µg/mL (≈ 2.25 µM) | >0.8 µg/mL | 11.0 | 0.0 | – |
| 2-(4-(2,2-dichlorocyclopropyl)phenyl)methylsulfonyl)-pyridine-N-oxide [Compound 45] | 1.75 µg/mL | 1.5 µg/mL | 2.5 | – | – |
| Cc1ccc(C)c(C(Cl)S(=O)(=O)c2ccccn2)c1 (stereo not drawn) [Compound 106, 2-((2,5-dimethylphenyl)chloromethylsulphonyl)pyridine] | – | – | – | 0.0 | EC50 (HIV-1 (IIIB); [1]): 0.9 µg/mL (≈ 3.04 µM); EC50 (HIV-2 (ROD); [1]): > 4 µg/mL; EC50 (Davis strain CMV; Human betaherpesvirus 5, 168 h, HEL cells, virus-induced cytopathicity after seven days): 20 µg/mL (≈ 67.6 µM) |
| Cc1cc(CS(=O)(=O)c2cccc[n+]2[O-])c(C)cc1CS(=O)(=O)c1cccc[n+]1[O-] [Compound 25] | 10.00 µg/mL (≈ 22.3 µM) | ≧20 ug/ml | 16.0 | 37.5 | – |
| Cc1ccccc1C(C)S(=O)(=O)c1cccc[n+]1[O-] (stereo not drawn) [Compound 104] | 40.00 µg/mL (≈ 144 µM) | 2.5 µg/mL (≈ 9.01 µM) | 34.5 | – | – |
| O=S(=O)(Cc1cc2c(cc1Cl)OCO2)c1cccc[n+]1[O-] [Compound 21] | 11.70 µg/mL (≈ 35.7 µM) | 6.3 µg/mL (≈ 19.2 µM) | 10.0 | – | – |
| Cc1ccc(C(C)S(=O)(=O)c2c(C)ccc[n+]2[O-])c(C)c1 (racemic) [Compound 78] | 1.40 µg/mL (≈ 4.58 µM) | >100.0 µg/mL | 10.0 | 0.0 | – |
| Oc1cccnc1SCc1ccccc1 [Compound 140, 2-[(Phenylmethyl)thio]-3-pyridinol] | – | – | – | – | EC50 (HIV-1 (IIIB); [1]): 2 µg/mL (≈ 9.2 µM); EC50 (HIV-2 (ROD)): 12 µg/mL (≈ 55.2 µM); EC50 (Davis strain CMV; [3]): 12 µg/mL (≈ 55.2 µM) |
| O=S(=O)(Cc1ccc2ccccc2c1)c1cccc[n+]1[O-] [Compound 53] | 2.33 µg/mL (≈ 7.78 µM) | 4.1 µg/mL (≈ 13.7 µM) | >5 | – | Antiviral % Inhibition Davis strain CMV (Davis strain CMV; HEL cells): 20.0% |
| [O-][n+]1ccccc1[S+]([O-])Cc1ccc(F)cc1 (stereo not drawn) [Compound 92] | ≧20 ug/ml | 4.0 µg/mL (≈ 15.9 µM) | >50 | – | HIV-1 % Protection (HIV-1 (IIIB)): 37.5%; Antiviral % Inhibition Davis strain CMV (Davis strain CMV; HEL cells): 10.0% |
| O=S(=O)(Cc1cccc2ccccc12)c1cccc[n+]1[O-] [Compound 13] | 6.50 µg/mL (≈ 21.7 µM) | 6.0 µg/mL (≈ 20 µM) | >5 | – | Antiviral % Inhibition Davis strain CMV (Davis strain CMV; HEL cells): 20.0% |
| [O-][n+]1ccccc1[S+]([O-])Cc1cccc(C(F)(F)F)c1 (stereo not drawn) [Compound 85] | 13.00 µg/mL (≈ 43.1 µM) | 17.0 µg/mL (≈ 56.4 µM) | >50 | – | Antiviral % Inhibition Davis strain CMV (Davis strain CMV; HEL cells): 20.0% |
| [O-][n+]1ccccc1SCc1ccccc1 [Compound 4] | ≧100 ug/ml | >100 µg/mL | >50 | 0.0 | HIV-1 % Protection (HIV-1 (IIIB)): 37.5%; Antiviral % Inhibition Davis strain CMV (Davis strain CMV; HEL cells): 0.0% |
| Cc1ccc(C)c(C[S+]([O-])c2c(C)ccc[n+]2[O-])c1 (stereo not drawn) [Compound 70] | 12.00 µg/mL (≈ 43.6 µM) | ≧20 ug/ml | 11.0 | 37.5 | – |
| N#CC(=Cc1ccccc1)Sc1cccc[n+]1[O-] [Compound 158] | >4 µg/mL | >4 µg/mL | 3.6 | 0.0 | HIV-1 % Protection (HIV-1 (IIIB)): 0.0% |
| Cc1ccc[n+]([O-])c1SCc1c(Cl)cccc1Cl [Compound 137] | >20 µg/mL | >20.00 µg/mL | 28.0 | 0.0 | HIV-1 % Protection (HIV-1 (IIIB)): 0.0% |
